Measurements reported in US20170348330A1, “ANTIVIRAL COMPOUND AND ANALOGUES THEREOF FOR TREATMENT OR PREVENTION OF FLAVIVIRUS DENGUE/ZIKA INFECTIONS” (Canopus BioPharma Incorporated, priority 2016, published 2017).
Values joined by “and” are separate entries in the source; they are usually repeats but may differ in a detail not shown here. Equal values may be shown once. Read-outs that look alike come from different tables or passages of the source.

Legend:
Zika virus = experiment: ZIKA anti-viral in-vitro testing in VERO cells (Naftol blue-black staining, absorbance at 450 nm); conditions: for Absorbance at 450 nm: Zika MOI 0.1, VERO cells, 72 hours, threshold 0.382, replicate wells
Procedure: ZIKA Anti-Viral In-Vitro Testing and Antiviral Assay Report:
Controls: Medium with DMSO at 1% start concentration; Zika virus for infection at 0.1 MOI; VERO cells on VP medium (serum-free).
Procedure: Antivirals were diluted as information provided to stock concentrations of 10 mM in 100% DMSO.
• 1—VERO cells in VP were inoculated in 200 μL/well at 5.0×10^4 cells/mL in 96-well plates. • 2—Incubated at 37° C. for 48 hours. • 3—With 80% confluence the test was performed as follows: culture medium was changed for 150 μL of fresh VP in columns 2 to 10. Antivirals diluted at 100 μM in VP medium were placed in the column 1 (300 μL). Serial dilutions from 1 to 10 were performed by passing 150 μL of medium (1:2). Plates were incubated at 37° C. for 2 hours. Zika virus diluted in VP medium to the final infection ration desired of MOI 0.1 in 100 μL of VP was added to wells. • 4—Plates were incubated for 72 hours and checked each 24 hours for cytotoxicity or cytopathic effect. • 5—Plates were washed and stained with Naftol blue-black. Absorbance was measured at 450 nm.
DMSO cytotoxicity Antiviral cytotoxicity Primary Threshold for virus inhibition. Absorbance above 0.382

[1] = cited from earlier work
[2] = Eplerenone PK and concentrations reported in humans; format: in vivo, human; conditions: for Cmax: human, plasma, po
Source text: Clinical data: Eplerenone PK and concentrations reported in humans:
Referring now to FIG. 5 and FIG. 6, Eplerenone Cmax concentrations achieved in normal subjects is illustrated, as well as subjects with varying degrees of renal impairment after single and multiple doses of Eplerenone given orally.
The charts illustrate the feasibility of achieving anti-viral Cmax concentrations using Eplerenone in human and show Eplerenone plasma concentration vs. time curves.
In multiple dose studies, it is shown that Eplerenone steady state concentrations may be reached within 4 days. […] This preferred embodiment may be adjusted according to the specific conditions of the human subject.

[3] = cited from earlier work; for mean Cmax concentrations: healthy subjects
[4] = laboratory animals; cited from earlier work
dengue [5] = conditions: by inhibiting the dengue 2′-O-methyltransferase NS5 domain; cited from earlier work
dengue [6] = conditions: cited from earlier work
dengue [7] = conditions: mouse model; cited from earlier work

| Structure (SMILES) | Absorbance at 450 nm (Zika virus; 0.19 μM) | Absorbance at 450 nm (Zika virus; 0.78 μM) | Absorbance at 450 nm (Zika virus; 1.56 μM) | Absorbance at 450 nm (Zika virus; 3.12 μM) | Absorbance at 450 nm (Zika virus; 6.25 μM) | Absorbance at 450 nm (Zika virus; 12.5 μM) | Absorbance at 450 nm (Zika virus; 25 μM) | Absorbance at 450 nm (Zika virus; 50 μM) | also measured |
| --- | --- | --- | --- | --- | --- | --- | --- | --- | --- |
| COC(=O)[C@@H]1CC2=CC(=O)CC[C@]2(C)[C@@]23O[C@@H]2C[C@@]2(C)[C@@H](CC[C@@]24CCC(=O)O4)[C@H]13 [Eplerenone, pregn-4-ene-7,21-dicarboxylic acid, 9,11-epoxy-17-hydroxy-3-oxo, γ-lactone, methyl ester (7α, 11α, 17α)] | 0.449 and 0.441 and 0.468 and 0.469 | 0.433 and 0.434 and 0.432 and 0.428 | 0.369 and 0.466 and 0.453 and 0.443 | 0.4 and 0.423 and 0.453 and 0.441 | 0.376 and 0.448 and 0.411 and 0.397 | 0.334 and 0.333 and 0.373 and 0.341 | 0.29 and 0.288 and 0.291 and 0.271 | 0.217 and 0.238 and 0.209 and 0.182 | In-vitro concentrations showing anti-viral activity against Zika virus (Zika virus; columns 6-10 of the report, comparable to Butantan control): 0.19 to 3.12 µM; Pregnancy category ([1]; animal reproduction studies failed to demonstrate a risk to the fetus): category B; Tolerability ([1]; human): generally well tolerated; Cmax relative to in-vitro concentration of column#9 ([…]) ([2]; Cmax […] after 100 mg oral vs in-vitro […]): 10 times; Cmax ([2]; 50 mg, healthy subjects, single dose of 50 mg orally, read-out: mean Cmax concentrations, equivalent): 2.8 µM; Cmax ([2]; 100 mg, healthy subjects, dose 100 mg orally, read-out: mean Cmax concentrations, equivalent): 4.1 µM; Cmax ([2]; 100 mg, therapeutic doses of oral Eplerenone (100 mg), read-out: Peak plasma concentrations (Cmax), equivalent): ≤ 4.1 µM; mean Cmax concentrations ([3]; dose 100 mg orally): 1720 ng/mL; mean Cmax concentrations ([3]; single dose of 50 mg orally): 1173 ng/mL; Accumulation: steady state Cmax compared with single dose administration ([3]; multiple dose studies): no significant accumulation; Time to reach steady state concentrations ([3]; multiple dose studies): ≤ 4 days; Peak plasma concentrations (Cmax) ([3]; therapeutic doses of oral Eplerenone (100 mg), human): up to 1720 ng/ml; Dose with noticeable risk of foetal abnormalities [4]: over 1000 times the recommended daily dose |
| COCCOC(=O)C1=C(C)NC(C)=C(C(=O)OC(C)C)C1c1cccc([N+](=O)[O-])c1 (centres unmarked) [Nimodipine] | 0.206 and 0.321 and 0.378 and 0.354 | 0.142 and 0.293 and 0.459 and 0.396 | 0.202 and 0.387 and 0.46 and 0.397 | 0.235 and 0.468 and 0.451 and 0.415 | 0.263 and 0.363 and 0.451 and 0.395 | 0.276 and 0.282 and 0.347 and 0.305 | 0.21 and 0.224 and 0.271 and 0.217 | 0.091 and 0.113 and 0.117 and 0.092 | – |
| NC(=O)c1ncn([C@@H]2O[C@H](CO)[C@@H](O)[C@H]2O)n1 [Ribavirin] | – | – | – | – | – | – | – | – | Activity against dengue in tissue culture (dengue [5]): works against dengue in tissue culture; Adverse effects in dengue animal models (dengue [6]; mouse model or rhesus monkey model (species not specified)): induced anemia and thrombocytosis; Protection against dengue (dengue [6]; rhesus monkey model): did not show protection; Protection against dengue (dengue [7]): did not show protection |
| CC(=O)S[C@@H]1CC2=CC(=O)CC[C@]2(C)[C@H]2CC[C@@]3(C)[C@@H](CC[C@@]34CCC(=O)O4)[C@H]12 [Spironolactone] | 0.22 and 0.2 and 0.183 and 0.095 | 0.328 and 0.23 and 0.168 and 0.063 | 0.328 and 0.318 and 0.2 and 0.069 | 0.359 and 0.317 and 0.223 and 0.06 | 0.358 and 0.307 and 0.263 and 0.097 | 0.338 and 0.342 and 0.234 and 0.092 | 0.255 and 0.257 and 0.214 and 0.076 | 0.079 and 0.082 and 0.074 and 0.047 | – |
